Laboratory results: patent publication US6946475B1, “Anticancer calcium channel blockers” (University of Virginia Patent Foundation, priority 1999, dated 2005)

Key:
Assay type in all cases: cell-based
[1] = tested on: Jurkat cells; test: Measurement of cellular proliferation, Jurkat cells; conditions: Jurkat, 48 hours; read-out: PROLIFERATION IC50 Jurkat
Procedure: (§1) Measurement of cellular proliferation: LNCaP cells at 2.5×10^4/well or PC3 cells at 5×10^4/well, both in a final volume of 100 μl, were plated in triplicate in standard flat bottom 96 well tissue culture plates in the presence of drug or vehicle (DMSO). Unless otherwise indicated, cells were grown for 48 hours at 37° C. in a CO2 incubator. Relative cell growth was determined with the CellTiter 96 aqueous cell proliferation assay (Promega, Madison, Wis.) as described by the manufacturer using an automated plate reader. Results were calculated in a blinded fashion and are means of triplicate determinations.
(§2) For the 48 hour proliferation, cells were cultured with calcium channel antagonists or without calcium channel antagonists. The IC50 values of the calcium channel antagonists were determined.
(§3) Using the measurement cell proliferation assay described hereinabove, the cell lines Jurkat, LNCap (prostate cancer cell), PC-31 (prostate cancer cell), DU145 (prostate cancer cell), MDA-468 (breast cancer cell), MDA-36 (Breast cancer cell), MCF-7 (breast cancer cell), MIA PaCa-2 (pancreatic cancer cell), Hep G2 (liver cancer cell), A549 (non-small cell lung cancer cells), NCI H460 (non-small cell lung cancer cells), HT-29 (colon cancer cell), HCT-116 (colon cancer cell) and SK OV-3 (ovarian cancer cell) were cultured in the presence of TH-1177, TH-1205, TH-1201, TH-2109, TH-2029, TH-2043, TN-2085 and TH-2279.

[2] = tested on: NCI H460 (non-small cell lung cancer cells); test: Measurement of cellular proliferation, NCI H460 cells; conditions: NCI H460, 48 hours; read-out: PROLIFERATION IC50 NCl H460
Procedure: as §1, §2, §3

[3] = biological target: T1, α1H subunit of a calcium channel of a human heart (Homo sapiens, UniProt O95180); test: Whole cell current recording, Xenopus oocytes transfected with α1H subunit
T1 construct: expressed in transfected cells; host or cells: Xenopus oocytes (so in the source), pcDNA3 plasmid
T1 sequence (O95180 whole entry): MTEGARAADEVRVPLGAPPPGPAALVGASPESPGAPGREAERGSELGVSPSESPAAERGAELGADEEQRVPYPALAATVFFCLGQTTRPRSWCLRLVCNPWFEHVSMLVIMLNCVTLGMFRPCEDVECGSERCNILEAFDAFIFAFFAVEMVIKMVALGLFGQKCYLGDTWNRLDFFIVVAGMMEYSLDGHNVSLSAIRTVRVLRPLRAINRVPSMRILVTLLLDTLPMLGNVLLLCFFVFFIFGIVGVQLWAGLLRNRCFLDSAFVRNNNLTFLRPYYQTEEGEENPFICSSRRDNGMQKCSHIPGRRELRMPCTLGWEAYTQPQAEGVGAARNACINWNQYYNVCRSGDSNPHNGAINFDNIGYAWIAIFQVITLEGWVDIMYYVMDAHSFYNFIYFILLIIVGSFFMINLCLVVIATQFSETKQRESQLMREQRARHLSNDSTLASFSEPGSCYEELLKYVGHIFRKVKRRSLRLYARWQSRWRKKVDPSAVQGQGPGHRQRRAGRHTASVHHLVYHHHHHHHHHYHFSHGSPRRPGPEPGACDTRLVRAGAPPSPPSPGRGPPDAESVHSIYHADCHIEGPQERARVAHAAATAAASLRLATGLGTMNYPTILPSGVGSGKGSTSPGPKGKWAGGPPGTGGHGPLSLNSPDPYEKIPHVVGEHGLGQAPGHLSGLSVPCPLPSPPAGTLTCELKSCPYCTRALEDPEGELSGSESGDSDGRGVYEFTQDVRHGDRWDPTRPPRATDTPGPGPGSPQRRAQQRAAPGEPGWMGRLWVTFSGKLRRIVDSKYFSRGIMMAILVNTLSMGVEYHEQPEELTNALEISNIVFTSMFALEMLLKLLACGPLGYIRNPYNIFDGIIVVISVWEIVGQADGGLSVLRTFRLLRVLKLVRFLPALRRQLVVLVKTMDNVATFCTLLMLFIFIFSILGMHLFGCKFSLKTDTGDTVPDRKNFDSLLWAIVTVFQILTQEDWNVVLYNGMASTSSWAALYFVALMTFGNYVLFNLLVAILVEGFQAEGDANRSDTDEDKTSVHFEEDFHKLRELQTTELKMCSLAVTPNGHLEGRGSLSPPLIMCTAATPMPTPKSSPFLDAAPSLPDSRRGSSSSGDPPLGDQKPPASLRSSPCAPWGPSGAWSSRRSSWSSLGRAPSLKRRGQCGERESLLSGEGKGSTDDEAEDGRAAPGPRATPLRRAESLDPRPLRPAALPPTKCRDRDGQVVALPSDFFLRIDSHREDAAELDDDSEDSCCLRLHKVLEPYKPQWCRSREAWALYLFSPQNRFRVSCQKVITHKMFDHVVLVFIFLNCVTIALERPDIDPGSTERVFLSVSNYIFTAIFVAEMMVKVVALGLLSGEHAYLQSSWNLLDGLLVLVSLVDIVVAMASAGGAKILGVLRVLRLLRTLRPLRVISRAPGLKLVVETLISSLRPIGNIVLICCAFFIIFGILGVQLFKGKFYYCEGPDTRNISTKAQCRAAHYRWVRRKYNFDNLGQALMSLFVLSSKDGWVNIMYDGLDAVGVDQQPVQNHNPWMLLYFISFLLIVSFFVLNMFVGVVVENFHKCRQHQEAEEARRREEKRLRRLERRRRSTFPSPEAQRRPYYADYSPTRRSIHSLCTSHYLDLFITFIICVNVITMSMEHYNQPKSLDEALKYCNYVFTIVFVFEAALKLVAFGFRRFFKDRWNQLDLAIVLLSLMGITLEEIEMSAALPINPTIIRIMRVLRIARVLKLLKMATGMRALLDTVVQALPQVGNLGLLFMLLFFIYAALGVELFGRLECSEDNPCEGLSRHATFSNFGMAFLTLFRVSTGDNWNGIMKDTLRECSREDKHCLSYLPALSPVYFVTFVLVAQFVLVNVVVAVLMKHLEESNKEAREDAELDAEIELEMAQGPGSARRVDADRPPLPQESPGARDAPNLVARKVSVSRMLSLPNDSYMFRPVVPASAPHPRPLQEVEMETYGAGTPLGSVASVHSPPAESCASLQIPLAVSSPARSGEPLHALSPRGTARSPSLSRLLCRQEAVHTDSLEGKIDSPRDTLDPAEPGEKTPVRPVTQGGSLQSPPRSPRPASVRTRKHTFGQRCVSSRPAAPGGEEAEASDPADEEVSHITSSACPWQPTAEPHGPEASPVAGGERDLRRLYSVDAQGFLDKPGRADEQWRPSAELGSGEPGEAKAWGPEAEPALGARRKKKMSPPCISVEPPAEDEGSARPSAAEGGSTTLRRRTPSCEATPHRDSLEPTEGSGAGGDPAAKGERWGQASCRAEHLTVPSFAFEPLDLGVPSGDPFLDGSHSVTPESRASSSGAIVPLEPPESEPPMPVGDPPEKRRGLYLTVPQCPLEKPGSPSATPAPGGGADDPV
Source text: Xenopus oocytes were transfected with the α1H subunit of a calcium channel of a human heart prepared in accordance with the procedure described by Cribbs, et al. in Circulation Research, 1998, 83, 103-109, the contents of which are incorporated by reference. The α1H plasmid was obtained by cloning the α1H sequence into the EcoRV-X baI site of the transfection vector pcDNA3, in accordance with the procedure described in the Cribbs, et al. article. Xenopus oocyte cells (1×10^5 per 35 mm dish) were transfected with 2 μg of alpha 1H-Tx plasmid. […] The internal pipette solution contained (mmol/L) CsCl 55, CS SO3 75, MgCl2 10, EGTA 0.1, and HEPES 10 (pH adjusted to 7.2 with (CsOH). Currents were recorded using an Axopatch 200A, a Digidata 1200 A/D converter and pCLAMP software (Axon Instruments, Inc.).
The current of the cell in the depolarized cell was recorded over time (control). Within a few minutes after the control plot was recorded, the cells were again depolarized, but this time, the bath contained in addition 10 μM TH-1177. The current was recorded for the same length of time as the control. The current was recorded at about zero pA. Then the cells in the bath containing 10 μM TH-1177 were depolarized again, but this time the bath medium containing TH-1177 was aspirated out and replaced with fresh calcium medium depolarizing medium and the current was measured.

[4] = tested on: MDA-468 (breast cancer cell); test: Measurement of cellular proliferation, MDA-468 cells; conditions: MDA-468, 48 hours
Procedure: as §1, §2, §3

[5] = tested on: Hep G2 (liver cancer cell); test: Measurement of cellular proliferation, Hep G2 cells; conditions: Hep G2, 48 hours
Procedure: as §1, §2, §3

[6] = tested on: A549 (non-small cell lung cancer cells); test: Measurement of cellular proliferation, A549 cells; conditions: A549, 48 hours
Procedure: as §1, §2, §3

[7] = tested on: HCT-116 (colon cancer cell); test: Measurement of cellular proliferation, HCT-116 cells; conditions: HCT 116, 48 hours
Procedure: as §1, §2, §3

[8] = tested on: SK OV-3 (ovarian cancer cell); test: Measurement of cellular proliferation, SK OV-3 cells; conditions: SK-OV-3, 48 hours
Procedure: as §1, §2, §3

[9] = tested on: MIA PaCa-2 (pancreatic cancer cell); test: Measurement of cellular proliferation, MIA PaCa-2 cells; conditions: MIA PaCa-2, 48 hours
Procedure: as §1, §2, §3

SMILES: COc1ccc(CCN2CCC[C@H]2COC(c2ccccc2)c2ccc(Cl)cc2)cc1 (stereo partly shown) [TH-1177]
- IC50 [1]: 8 µM
- IC50 [2]: 15 µM
- Current in depolarized α1H-transfected cells ([3]; 10 μM TH-1177 in bath): about zero
- Ability of calcium to cross the cell membrane ([3]; α1H-transfected Xenopus oocytes, 10 μM, restored on washout): inhibits
- IC50 [4]: 13 µM
- IC50 [5]: 32 µM
- IC50 [6]: 71 µM
- IC50 [7]: 37 µM
- IC50 [8]: 25 µM
- IC50 [9]: 17 µM
